According to ChEMBL document CHEMBL1201862, “PubChem BioAssay data set” (2004):
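Compound exposure: 48 hours, 5 concentrations, 96-well plates. GI50 is the concentration that inhibits growth by half.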 Activity calls are given as the source filed them. No stated cut-off is given here; in the data, active = GI50 up to about 1.1 µM and inactive = higher.

How the values were obtained:
Experiment in all cases: NCI-60 cell line screen, 48 h
DLD-1 = system: DLD-1
DMS-114 = system: DMS-114
DMS-273 = system: DMS-273
KM-20L2 = system: KM-20L2
LXFL 529 = system: LXFL 529
M19-MEL = system: M19-MEL
SNB-78 = system: SNB-78
XF498 = system: XF498
RXF 631 = system: RXF 631

| SMILES | GI50 (DLD-1) | GI50 (DMS-114) | GI50 (DMS-273) | GI50 (KM-20L2) | GI50 (LXFL 529) | GI50 (M19-MEL) | GI50 (SNB-78) | GI50 (XF498) | GI50 (RXF 631) |
| --- | --- | --- | --- | --- | --- | --- | --- | --- | --- |
| CCOC(=O)C1C(c2ccc([N+](=O)[O-])cc2)NC(c2ccc([N+](=O)[O-])cc2)C(C(=O)OC)S1(=O)=O (stereo unspecified) | > 100 µM (inactive) | > 100 µM (inactive) | > 100 µM (inactive) | > 100 µM (inactive) | > 100 µM (inactive) | > 100 µM (inactive) | > 100 µM (inactive) | > 100 µM (inactive) | – |
| N#Cc1c2ccccc2cn1-c1ccc(F)cc1 | 48.8 µM (inactive) | 16.2 µM (inactive) | > 10 µM (inactive) | 31.9 µM (inactive) | 31.3 µM (inactive) | 37.8 µM (inactive) | – | 42.2 µM (inactive) | – |
| Cc1cc2c(c3nocc13)C(=O)c1ccccc1C2=O | > 100 µM (inactive) | > 100 µM (inactive) | > 100 µM (inactive) | > 100 µM (inactive) | > 100 µM (inactive) | > 100 µM (inactive) | – | – | > 100 µM (inactive) |
| CCCCCCCCCCCCCC(=O)OC(/C=C/C(C)C)C(O)C(O)C(OC)C(=O)NC1CCCCNC1=O (stereo unspecified) | 0.637 µM (active) | 0.615 µM (active) | 0.0916 µM (active) | 1.46 µM (inactive) | 1.39 µM (inactive) | – | 2.82 µM (inactive) | 1.78 µM (inactive) | – |
| Cc1cc2c([nH]c3ccccc32)c2c1OC(C)(C)C1C3CC(C)(C)Oc4c(C)cc5c6ccccc6n(c5c43)C21 (stereo unspecified) | – | > 100 µM (inactive) | > 100 µM (inactive) | > 100 µM (inactive) | > 100 µM (inactive) | > 100 µM (inactive) | > 100 µM (inactive) | – | – |
| COC1OC2COC(C)(C)OC2C(OC(C)=O)C1NC(=O)N(CCCl)N=O (stereo unspecified) | > 100 µM (inactive) | > 100 µM (inactive) | > 100 µM (inactive) | > 100 µM (inactive) | > 100 µM (inactive) | > 100 µM (inactive) | > 100 µM (inactive) | > 100 µM (inactive) | – |
| COC(=O)c1cc2c(c(C(=O)OC)c1O)C(=O)C=CC2=O | > 21.5 µM (inactive) | > 48.6 µM (inactive) | 34.1 µM (inactive) | > 41.6 µM (inactive) | 11.6 µM (inactive) | > 43.8 µM (inactive) | > 42.8 µM (inactive) | > 9.1 µM (inactive) | 34.8 µM (inactive) |
| COc1cc(/C=C/c2ccc(OC)c(OC)c2OC)cc(OC)c1OC | 18.3 µM (inactive) | 18.2 µM (inactive) | 16.4 µM (inactive) | 20.2 µM (inactive) | 17.3 µM (inactive) | 20.2 µM (inactive) | 17.3 µM (inactive) | 25.5 µM (inactive) | 20 µM (inactive) |
| [N-]=[N+]=NC1C(Br)C(=O)NC(=O)N1[C@H]1C[C@H](O)[C@@H](CO)O1 (stereo partly specified) | > 100 µM (inactive) | – | > 100 µM (inactive) | > 100 µM (inactive) | > 100 µM (inactive) | – | > 100 µM (inactive) | > 100 µM (inactive) | – |
| O=c1c2ccccc2nc(-c2ccccc2)n1NC(=S)Nc1ccc(Cl)cc1 | > 100 µM (inactive) | 34.4 µM (inactive) | > 100 µM (inactive) | – | 48.6 µM (inactive) | 52.6 µM (inactive) | – | – | – |
| COc1ccc2nc3ccccc3c(NCCCCCN(CCCl)CCCl)c2c1 | – | 0.073 µM (active) | < 0.0365 µM (active) | 0.0647 µM (active) | 0.112 µM (active) | 0.116 µM (active) | 0.277 µM (active) | 0.051 µM (active) | – |
| CSc1nc(SC)c2c(C(N)=S)n[nH]c2n1 | 37 µM (inactive) | 30.1 µM (inactive) | 30 µM (inactive) | 23.1 µM (inactive) | 29.6 µM (inactive) | 28.2 µM (inactive) | 31.8 µM (inactive) | – | 32 µM (inactive) |
| N#CC12CCC1C1CCCCC12N1CCSCC1 (stereo unspecified) | > 100 µM (inactive) | > 100 µM (inactive) | > 100 µM (inactive) | > 100 µM (inactive) | > 100 µM (inactive) | > 100 µM (inactive) | > 100 µM (inactive) | > 100 µM (inactive) | – |
| CC(C)C/C(CC(=O)CCC(=O)Nc1ccccc1[N+](=O)[O-])=N\NC(=O)c1cc2ccccc2cc1O | 55.2 µM (inactive) | 36.1 µM (inactive) | – | 32.1 µM (inactive) | 29.7 µM (inactive) | 24.2 µM (inactive) | – | 30.7 µM (inactive) | 31.2 µM (inactive) |
| COc1cc2c(c3c1c(=O)c1ccccc1n3C)C=CC(C)(C)O2 [ACRONINE] | > 100 µM (inactive) | 45.4 µM (inactive) | 23.3 µM (inactive) | 49.9 µM (inactive) | 94 µM (inactive) | 72.3 µM (inactive) | > 100 µM (inactive) | – | – |
| O=C(COC(=O)c1cccc2c(=O)c3ccccc3[nH]c12)Nc1ccccc1 | 65 µM (inactive) | 22.3 µM (inactive) | 58.1 µM (inactive) | 79.6 µM (inactive) | 28.6 µM (inactive) | 33.6 µM (inactive) | – | 32.1 µM (inactive) | 28.5 µM (inactive) |
| CC(=O)NC1C(OCc2ccccc2)OC(COC(=O)CCCCCCCCCCNC(=O)c2cccc3c(=O)c4ccccc4[nH]c23)C(O)C1OC(C)C(=O)NC(C)C(=O)NC(CCC(N)=O)C(N)=O (stereo unspecified) | 95.9 µM (inactive) | 36.3 µM (inactive) | 57.8 µM (inactive) | > 100 µM (inactive) | 37.3 µM (inactive) | 75.5 µM (inactive) | 99.1 µM (inactive) | 38.7 µM (inactive) | 19.5 µM (inactive) |
| N#C/C(=C/c1cccnc1)C(=O)c1ccccc1 | > 100 µM (inactive) | > 100 µM (inactive) | > 100 µM (inactive) | > 100 µM (inactive) | > 100 µM (inactive) | > 100 µM (inactive) | > 100 µM (inactive) | > 100 µM (inactive) | – |
| S=c1cc(S)c2c(=S)sc3nc4ccccn4c(=S)c3c2s1 | > 100 µM (inactive) | 7.03 µM (inactive) | 63.4 µM (inactive) | 46.3 µM (inactive) | – | 35.5 µM (inactive) | > 100 µM (inactive) | > 100 µM (inactive) | – |
| CC(=O)OCC1C(=O)OCC1C(=O)N1Cc2cc3ccccc3nc2C1 (stereo unspecified) | 1.61 µM (inactive) | 13.6 µM (inactive) | 5.09 µM (inactive) | 3.84 µM (inactive) | 1.8 µM (inactive) | 8.05 µM (inactive) | – | 1.82 µM (inactive) | – |
| CCOC(=O)/C(=C\c1ccc(N(CCC#N)CCC#N)cc1)NC(=O)c1cc([N+](=O)[O-])ccc1Cl | > 100 µM (inactive) | > 100 µM (inactive) | > 100 µM (inactive) | > 100 µM (inactive) | > 100 µM (inactive) | > 100 µM (inactive) | > 100 µM (inactive) | – | > 100 µM (inactive) |
